Measured values published in US8906852B2 (MethylGene Inc., priority 2010, dated 2014).

Each compound was assayed against T1, VEGFR/KDR (Homo sapiens, UniProt P35968) (assay: VEGFR/KDR kinase inhibition, DELFIA assay). Settings: ATP 0.6 uM (2x Km), enzyme 5 nM.
T1 construct: made in house; host or cells: Sf9 cells (Spodoptera frugiperda), baculovirus
Format: biochemical
How it was run: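 Enzyme (5 nM) pre-incubated 4 min on ice with inhibitor and Mg-ATP (0.6 uM, 2× Km), then reacted 10-30 min at 30° C on immobilized poly(Glu4,Tyr). EDTA-quenched phosphotyrosine detected with Europium-labeled antibody by time-resolved fluorescence; IC50 from concentration series.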

T1 sequence (P35968 806-1356): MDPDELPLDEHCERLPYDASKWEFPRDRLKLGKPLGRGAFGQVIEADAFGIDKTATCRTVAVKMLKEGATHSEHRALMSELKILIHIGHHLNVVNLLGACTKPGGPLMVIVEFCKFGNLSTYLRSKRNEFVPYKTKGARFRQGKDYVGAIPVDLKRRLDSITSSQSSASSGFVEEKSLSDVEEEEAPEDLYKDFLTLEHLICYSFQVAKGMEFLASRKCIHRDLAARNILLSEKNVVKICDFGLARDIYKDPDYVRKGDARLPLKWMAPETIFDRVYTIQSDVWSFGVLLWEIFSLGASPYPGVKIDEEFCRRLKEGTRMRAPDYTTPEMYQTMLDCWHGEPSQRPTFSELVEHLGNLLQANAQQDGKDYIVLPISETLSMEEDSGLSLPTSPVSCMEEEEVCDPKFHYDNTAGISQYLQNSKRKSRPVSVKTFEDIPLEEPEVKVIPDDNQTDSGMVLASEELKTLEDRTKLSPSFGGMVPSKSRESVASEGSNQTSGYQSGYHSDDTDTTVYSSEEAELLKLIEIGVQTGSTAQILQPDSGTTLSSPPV

IC50, 0.1 to 0.25 µM:
CC(C)(C)C(=O)OC1CCN(C(=O)c2cc3nccc(Oc4ccc(NC(=O)NC5CC5)cc4F)c3s2)CC1 [Compound 455]

IC50, < 0.05 µM:
COCCN(Cc1ccc(-c2cc3nccc(Oc4ccc(NC(=O)NC5CC5)cc4F)c3s2)nc1)C(=O)CNC(=O)[C@@H](N)C(C)C [Compound 92, (S)-2-amino-N-(2-(((6-(7-(4-(3-cyclopropylureido)-2-fluorophenoxy)thieno[3,2-b]pyridin-2-yl)pyridin-3-yl)methyl)(2-methoxyethyl)amino)-2-oxoethyl)-3-methylbutanamide]
O=C(Nc1ccc(Oc2ccnc3cc(-c4ccc(CN5CCNCC5=O)cn4)sc23)c(F)c1)NC1CC1 [Compound 72]
O=C(O)CCCNCc1ccc(-c2cc3nccc(Oc4ccc(NC(=O)NC5CC5)c(F)c4F)c3s2)nc1 [Compound 168, 4-((6-(7-(4-(3-cyclopropylureido)-2,3-difluorophenoxy)thieno[3,2-b]pyridin-2-yl)pyridin-3-yl)methylamino)butanoic acid]
CN(CCO)C(=O)NC1CCN(Cc2ccc(-c3cc4nccc(Oc5ccc(NC(=O)NC6CC6)cc5F)c4s3)nc2)CC1 [Compound 358, 1-Cyclopropyl-3-(3-fluoro-4-(2-(5-((4-((2-hydroxyethyl-methylamino)carbonylamino)piperidin-1-yl)methyl)pyridin-2-yl)thieno[3,2-b]pyridin-7-yloxy)phenyl)urea]
CCOC(=O)Cc1csc(NC(=O)Cn2cc(-c3cc4nccc(Oc5ccc(NC(=O)NC6CC6)cc5F)c4s3)nn2)n1 [Compound 375]
Cc1cc(NCc2ccc(-c3cc4nccc(Oc5ccc(NC(=O)NC6CC6)cc5F)c4s3)nc2)nn1C [Compound 335, 1-cyclopropyl-3-(4-(2-(5-((1,5-dimethyl-1H-pyrazol-3-ylamino)methyl)pyridin-2-yl)thieno[3,2-b]pyridin-7-yloxy)-3-fluorophenyl)urea]
Cn1c(C(=O)NCCN2CCOCC2)cnc1-c1cc2nccc(Oc3ccc(NC(=O)NC4CC4)cc3F)c2s1 [Compound 217, 2-(7-(4-(3-cyclopropylureido)-2-fluorophenoxy)thieno[3,2-b]pyridin-2-yl)-1-methyl-N-(2-morpholinoethyl)-1H-imidazole-5-carboxamide]
COCCN(Cc1ccc(-c2cc3nccc(Oc4ccc(NC(CC(=O)Nc5ccc(F)cc5)C(F)(F)F)cc4F)c3s2)nc1)C(C)=O (centres unmarked) [Compound 39]
COCCN(CCn1cnc(-c2cc3nccc(Oc4ccc(NC(=O)NC5CC5)cc4F)c3s2)c1)C(C)=O [Compound 254-A, N-(2-(4-(7-(4-(3-cyclopropylureido)-2-fluorophenoxy)-thieno[3,2-b]pyridin-2-yl)-1H-imidazol-1-yl)ethyl)-N-(2-methoxyethyl)acetamide]
COCCN(Cc1ccc(-c2cc3nccc(Oc4ccc(NC(=O)NC5CC5)cc4F)c3s2)nc1)C(=O)COC [Compound 85]
COCCN(Cc1ccc(-c2cc3nccc(Oc4ccc(NC(=O)NC5CC5)cc4F)c3s2)cc1)C(C)=O [Compound 114, N-(4-(7-(4-(3-cyclopropylureido)-2-fluorophenoxy)thieno[3,2-b]pyridin-2-yl)benzyl)-N-(2-methoxyethyl)acetamide]
O=C(O)CCCCCCC(=O)N1CCN(Cc2ccc(-c3cc4nccc(Oc5ccc(NC(=O)NC6CC6)cc5F)c4s3)nc2)CC1 [Compound 544]
O=C(Nc1ccc(Oc2ccnc3cc(-c4ccc(CN5CCN(CCn6ccnc6)CC5)cn4)sc23)c(F)c1)NC1CC1 [Compound 54-G, 1-(4-(2-(5-((4-(2-(1H-imidazol-1-yl)ethyl)piperazin-l-yl)methyl)pyridin-2-yl)thieno[3,2-b]pyridin-7-yloxy)-3-fIuorophenyl)-3-cyclopropylurea]
O=C(Nc1ccc(Oc2ccnc3cc(-c4ccc(CCN5CCOCC5)cn4)sc23)c(F)c1)NC1CC1 [Compound 178, 1-cyclopropyl-3-(3-fluoro-4-(2-(5-(2-morpholinoethyl)pyridin-2-yl)thieno[3,2-b]pyridin-7-yloxy)phenyl)urea]
CCOC(=O)CC(C)N1CCN(Cc2ccc(-c3cc4nccc(Oc5ccc(NC(=O)NC6CC6)cc5F)c4s3)nc2)CC1 (centres unmarked) [Compound 515, Ethyl 3-(4-((6-(7-(4-(3-cyclopropylureido)-2-fluorophenoxy)thieno[3,2-b]pyridin-2-yl)pyridin-3-yl)methyl)piperazin-1-yl)butanoate]
COCCN1CCN(Cc2ccc(-c3cc4nccc(Oc5ccc(NC(=O)NC6CC6)cc5F)c4s3)nc2)CC1 [Compound 56]
O=C(Nc1ccc(Oc2ccnc3cc(-c4cn(CCC(=O)N5CCCC5)nn4)sc23)c(F)c1)NC1CC1 [Compound 380]
CN(CC(=O)O)C1CCN(Cc2ccc(-c3cc4nccc(Oc5ccc(NC(=O)NC6CC6)cc5F)c4s3)nc2)CC1 [Compound 423, 2-((1-((6-(7-(4-(3-Cyclopropylureido)-2-fluorophenoxy)thieno[3,2-b]pyridin-2-yl)pyridin-3-yl)methyl)piperidin-4-yl)(methyl)amino)acetic acid]
CC(=O)N[C@H]1CCN(C(=O)c2cc3nccc(Oc4ccc(NC(=O)NC5CC5)cc4F)c3s2)C1 [Compound 452]
CN(C)[C@@H]1CCN(C(=O)c2ccc(-c3cc4nccc(Oc5ccc(NC(=O)NC6CC6)cc5F)c4s3)nc2)C1 [Compound 227, (R)-1-cyclopropyl-3-(4-(2-(5-(3-(dimethylamino)pyrrolidine-1-carbonyl)pyridin-2-yl)thieno[3,2-b]pyridin-7-yloxy)-3-fluorophenyl)urea]
CC(=O)OCC(=O)N(C)C1CCN(Cc2ccc(-c3cc4nccc(Oc5ccc(NC(=O)NC6CC6)cc5F)c4s3)nc2)CC1 [Compound 411]
CN1CCN(C(=O)NC2CCN(Cc3ccc(-c4cc5nccc(Oc6ccc(NC(=O)NC7CC7)cc6F)c5s4)nc3)CC2)CC1 [Compound 357, N-(1-((6-(7-(4-(3-Cyclopropylureido)-2-fluorophenoxy)thieno[3,2-b]pyridin-2-yl)pyridin-3-yl)methyl)piperidin-4-yl)-4-methylpiperazine-1-carboxamide]
CCOC(=O)CCN1CCN(C(=O)c2ccc(-c3cc4nccc(Oc5ccc(NC(=O)NC6CC6)cc5F)c4s3)nc2)CC1 [Compound 236, ethyl 3-(4-(6-(7-(4-(3-cyclopropylureido)-2-fluorophenoxy)thieno-[3,2-b]pyridin-2-yl)nicotinoyl)piperazin-1-yl)propanoate]
O=C(Nc1ccc(Oc2ccnc3cc(-c4ccc(CN5CC[C@H](O)C5)cn4)sc23)c(F)c1)NC1CC1 [Compound 52, (S)-1-cyclopropyl-3-(3-fluoro-4-(2-(5-((3-hydroxypyrrolidin-1-yl)methyl)pyridin-2-yl)thieno[3,2-b]-pyridin-7-yloxy)phenyl)urea]

IC50, ≥ 0.25 µM:
CC1=C(/C=C/C(C)=C/C=C/C(C)=C/C(=O)N2CCN(Cc3ccc(-c4cc5nccc(Oc6ccc(NC(=O)NC7CC7)cc6F)c5s4)nc3)CC2)C(C)(C)CCC1 [Compound 548, 1-cyclopropyl-3-(4-(2-(5-((4-((2E,4E,6E,8E)-3,7-dimethyl-9-(2,6,6-trimethylcyclohex-1-enyl)nona-2,4,6,8-tetraenoyl)piperazin-1-yl)methyl)pyridin-2-yl)thieno[3,2-b]pyridin-7-yloxy)-3-fluorophenyl)urea]
